Source: patent US20170067894A1 (priority 2014, published 2017)
Read-outs that look alike come from different tables or passages of the source.

Tests used:
[1] = target: LuxR of Vibrio fischeri (Aliivibrio fischeri, UniProt P12746, DEL21-21/INS42T/N22A/N23Y); assay type: cell-based; conditions: for induction of luminescence (LuxR activation) compared to 2-AA: 50 μM, 20 h of incubation, FIG. 10
[2] = tested on: LuxR-regulated luminescence of Vibrio fischeri MJ-1; assay type: cell-based

Chain of LuxR of Vibrio fischeri (P12746 with tags, fused parts or gaps DEL21-21/INS42T/N22A/N23Y): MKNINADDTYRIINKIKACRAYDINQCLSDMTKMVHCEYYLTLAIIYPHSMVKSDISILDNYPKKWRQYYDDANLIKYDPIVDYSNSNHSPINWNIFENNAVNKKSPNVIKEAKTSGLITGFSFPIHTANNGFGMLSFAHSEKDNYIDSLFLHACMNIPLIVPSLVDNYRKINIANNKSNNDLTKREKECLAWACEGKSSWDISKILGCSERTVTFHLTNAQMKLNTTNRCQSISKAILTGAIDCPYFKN

Compound	induction of luminescence (LuxR activation) compared to 2-AA [1]	further results
Nc1ccccc1C=O [2-aminobenzaldehyde]	completely abolished the induction of luminescence	–
CCCC(=O)CC(=O)N[C@H]1CCOC1=O [3-oxo-C6-HSL]	–	affinity towards LuxR relative to 2-AA ([1]; as apparent from FIGS. 4 through 9): approximately three orders of magnitude higher; luminescence of V. fischeri MJ-1 ([2]; 10 nM, FIG. 6): significant increase; luminescence of V. fischeri MJ-1 ([2]; two repeats of the experiment (data not shown)): no luminescence was measured
CC(=O)c1cccc(N)c1 [3-aminoacetophenone]	completely abolished the induction of luminescence	–
COC(=O)c1ccccc1N [methyl anthranilate]	completely abolished the induction of luminescence	–
CC(=O)c1ccc(N)cc1 [4-aminoacetophenone]	completely abolished the induction of luminescence	–
CC(=O)c1ccccc1 [acetophenone]	completely abolished the induction of luminescence	–
Nc1ccccc1C(=O)O [anthranilic acid]	completely abolished the induction of luminescence	–
O=C(C[N+](=O)[O-])c1ccccc1 [2-nitroacetophenone]	could also activate LuxR, but to a lesser extent than 2-AA	dose dependency of LuxR activation ([1]; 1-50 μM): no dose dependency; synergistic effects in the presence of AHL ([1]; 1-50 μM): no dose dependency or synergistic effects in the presence of AHL were observed
